Here are results for one compound from US20210380946A1 (priority 2018, published 2021).

A short description of the data set: Clinical trial: neutropenia, thrombocytopenia and toxicity post-melphalan reduced-intensity conditioning. The conditions noted are these: for Days ANC >500 (Absolute Neutrophil Count) / Days Platelets <50: 140 mg/m^2 melphalan single dose.

In the case of `N[C@@H](Cc1ccc(N(CCCl)CCCl)cc1)C(=O)O` [Melphalan, melphalan], for the setting “Subject 1”, the “Days ANC >500 (Absolute Neutrophil Count)” value is 9 days and the “Days Platelets <50” value is 13 days. Further, where the note is “Subject 2”, the “Days ANC >500 (Absolute Neutrophil Count)” value turned out to be 7 days and the “Days Platelets <50” value is 8 days. Moreover, where the note is “both subjects”, the “chemotherapy related toxicity: cytopenia” value is reported as “temporary cytopenia” and the “chemotherapy related toxicity: transaminases” value is recorded as “temporary mild evelvations in transaminases”. The “chemotherapy related toxicity: mucositis” value (both subjects, follow-up 1 year and 6 months) was 2-3 grade.
